# Measured values reported in patent publication US4463173A, “Cephalosporin derivatives” (ICI Pharma, priority 1979, dated 1984).
# How the values were obtained:
# bacterial infection = assay: mouse protection test (PD50); assay type: in vivo; conditions: subcutaneous
# Strep. pyogenes = assay: MIC by agar-dilution technique, Strep. pyogenes A1; assay type: cell-based; conditions: Streptococcus pyogenes, No. Code A1, inoculum ~10^5 CFU
# Excerpt: (§1) As noted above the cephalosporin derivatives of the invention have antibacterial properties. Thus they are useful antibacterial agents, many of them having a broad spectrum of activity in vitro, against standard laboratory microorganisms, both Gram-negative and Gram-positive, which are used to screen for activity against pathogenic bacteria. The antibacterial spectrum and potency of a particular compound may be determined in a standard test system. […] The antibacterial activity is described in terms of the minimum inhibitory concentration (MIC) determined by agar-dilution technique with an inoculum size of ~10^5 CFU.
# Ent. cloacae = assay: MIC by agar-dilution technique, Ent. cloacae A13; assay type: cell-based; conditions: Enterobacter cloacae, No. Code A13, inoculum ~10^5 CFU
# Excerpt: as §1
# Serratia marescens = assay: MIC by agar-dilution technique, Serratia marescens A16; assay type: cell-based; conditions: No. Code A16, inoculum ~10^5 CFU
# Excerpt: as §1
# K. aerogenes = assay: MIC by agar-dilution technique, K. aerogenes A10; assay type: cell-based; conditions: Klebsiella aerogenes, No. Code A10, inoculum ~10^5 CFU
# Excerpt: as §1
# Staph. aureus = assay: MIC by agar-dilution technique, Staph. aureus A6; assay type: cell-based; conditions: Staphylococcus aureus, No. Code A6, inoculum ~10^5 CFU
# Excerpt: as §1
# E. coli = assay: MIC by agar-dilution technique, E. coli A8; assay type: cell-based; conditions: Escherichia coli, No. Code A8, inoculum ~10^5 CFU
# Excerpt: as §1
# Proteus mirabilis = assay: MIC by agar-dilution technique, Proteus mirabilis A18; assay type: cell-based; conditions: No. Code A18, inoculum ~10^5 CFU
# Excerpt: as §1
# Ps. aeruginosa = assay: MIC by agar-dilution technique, Ps. aeruginosa A21; assay type: cell-based; conditions: Pseudomonas aeruginosa, No. Code A21, inoculum ~10^5 CFU
# Excerpt: as §1
# [1] = overt toxic symptoms or side effects in mice; assay type: in vivo; conditions: single dose of 2 g./kg.
# Method: Similarly the compound 7-(imidazol-2-yl)amino-3-(2-methyl-1,3,4-thiadiazol-5-yl)thiomethylceph-3- em-4-carboxylic acid was administered both orally and subcutaneously to mice at a single dose of 2 g./kg.
SMILES,dose relative to minimum effective dose which protected 50% of the mice against bacterial infection (PD50) (bacterial infection; dose 100 mg./kg.),MIC (Strep. pyogenes) [µg/mL],MIC (Ent. cloacae) [µg/mL],MIC (Serratia marescens) [µg/mL],MIC (K. aerogenes) [µg/mL],MIC (Staph. aureus) [µg/mL],MIC (E. coli) [µg/mL],MIC (Proteus mirabilis) [µg/mL],MIC (Ps. aeruginosa) [µg/mL],further results
CC(=O)OCC1=C(C(=O)O)N2C(=O)[C@@H](Nc3nc(-c4ccc(N(C)C)cc4)c[nH]3)[C@H]2SC1 [3-acetoxymethyl-7-[4-(4-dimethylamino)phenylimidazol-2-yl]aminoceph-3-em-4-carboxylic acid],at least ten times,–,–,–,–,–,–,–,–,–
CC(=O)OCC1=C(C(=O)O)N2C(=O)[C@@H](Nc3nc4c(O)cccc4[nH]3)[C@H]2SC1 [3-acetoxymethyl-7-(4-hydroxybenzimidazol-2-yl)aminoceph-3-em-4-carboxylic acid],–,–,–,–,–,–,–,–,–,dose relative to minimum effective dose which protected 50% of the mice against bacterial infection (PD50) (bacterial infection; dose 200 mg./kg.): at least ten times
CC1=C(C(=O)O)N2C(=O)[C@@H](NC3=NCCN3)[C@H]2SC1,–,256,8,32,8,> 256,8,256,> 256,–
"Cc1nnc(SCC2=C(C(=O)O)N3C(=O)[C@@H](Nc4ncc[nH]4)[C@H]3SC2)s1 [7-(imidazol-2-yl)amino-3-(2-methyl-1,3,4-thiadiazol-5-yl)thiomethylceph-3-em-4-carboxylic acid]",–,–,–,–,–,–,–,–,–,overt toxic symptoms or side effects ([1]; oral): no overt toxic symptoms or side effects were noted; overt toxic symptoms or side effects ([1]; subcutaneous): no overt toxic symptoms or side effects were noted
CC(=O)OCC1=C(C(=O)O)N2C(=O)[C@@H](Nc3ncc[nH]3)[C@H]2SC1 [drawing 38],–,16,4,1,0.5,32,0.12,32,> 256,–
Cn1nnnc1SCC1=C(C(=O)O)N2C(=O)[C@@H](Nc3ncc[nH]3)[C@H]2SC1 [7-(imidazol-2-yl)amino-3-(1H-1-methyltetrazol-5-yl)thiomethylceph-3-em-4-carboxylic acid],at least ten times,–,–,–,–,–,–,–,–,–
CC(=O)OCC1=C(C(=O)O)N2C(=O)[C@@H](Nc3ncc[nH]3)[C@H]2SC1 [3-acetoxymethyl-7-imidazol-2-yl)aminoceph-3-em-4-carboxylic acid],at least ten times,–,–,–,–,–,–,–,–,–
CC(=O)OCC1=C(C(=O)O)N2C(=O)[C@@H](Nc3nc4ccccc4[nH]3)[C@H]2SC1,–,2,> 64,64,4,2,2,4,> 64,–
